For experiment [1], the system named is HT-29. In words: Cytotoxicity against human HT-29 cells assessed as reduction in cell viability incubated for 72 hrs by MTT assay. Particulars: HT-29, 72 h. A general note: Formazan colour is commonly taken as a measure of viable cells.
Experiment [2] deals with HEK-293T. The experiment in a line: Cytotoxicity against HEK293T cells assessed as reduction in cell viability incubated for 72 hrs by MTT assay. Particulars: Homo sapiens.
Experiment [3] deals with PC-3. The experiment in a line: Cytotoxicity against human PC3 cells assessed as reduction in cell viability incubated for 72 hrs by MTT assay. Conditions: PC-3, 72 h.
The subject of experiment [4] is A549. The experiment in a line: Cytotoxicity against human A549 cells assessed as reduction in cell viability incubated for 72 hrs by MTT assay. Conditions: A549, 72 h.
For experiment [5], the system named is U-87 MG. In words: Cytotoxicity against human U87MG cells assessed as reduction in cell viability incubated for 72 hrs by MTT assay.

pIC50: −log10 of the molar value.

For orientation: pIC50 means the negative decadic logarithm of the IC50, by convention in mol/L.

Regarding `COc1ccc2nc(NC(=O)c3cn(-c4ccccc4)nc3-c3ccc(Cl)cc3)sc2c1`, the pIC50 in experiment [1] was 4.73; in experiment [2] it was 4.53; in experiment [3] it was 4.53; in experiment [4], 4.50; in experiment [5], 4.67.
For `Cc1ccc2nc(NC(=O)c3cn(-c4ccccc4)nc3-c3ccccc3)sc2c1`, the pIC50 in experiment [1] was less than 4.30; in experiment [2], less than 4.30; in experiment [3] it was 4.80; in experiment [4] it was 4.58; in experiment [5], 4.63.
Consider `COc1ccc2nc(NC(=O)c3cn(-c4ccccc4)nc3-c3ccc(F)cc3)sc2c1`, for which the pIC50 is 4.48 in experiment [1]; less than 4.30 in experiment [2]; 4.89 in experiment [3]; less than 4.30 in experiment [4]; less than 4.30 in experiment [5].
Regarding `O=C(Nc1nc2ccccc2s1)c1cn(-c2ccccc2)nc1-c1ccc(Cl)cc1`, the pIC50 in experiment [1] is 4.86; in experiment [2], 4.40; in experiment [3], 5.11; in experiment [4], 4.99; in experiment [5], 4.94.
On the same counts, the results for `O=C(Nc1nc2ccccc2s1)c1cn(-c2ccccc2)nc1-c1ccccc1` are 4.77, less than 4.30, 4.98, 4.87 and 5.05.
As for `Cc1ccc2nc(NC(=O)c3cn(-c4ccccc4)nc3-c3ccc(Cl)cc3)sc2c1`, the pIC50 was 4.63 in experiment [1]; 4.45 in experiment [2]; 4.84 in experiment [3]; 4.73 in experiment [4]; 4.48 in experiment [5].
The corresponding values for `COc1ccc(-c2nn(-c3ccccc3)cc2C(=O)Nc2nc3ccc(Cl)cc3s2)cc1` are 5.18, 4.90, 5.19, 5.33 and 5.06.
Regarding `COc1ccc(-c2nn(-c3ccccc3)cc2C(=O)Nc2nc3ccc(C)cc3s2)cc1`, the negative logarithm of the IC50 (pIC50) in experiment [1] is 4.67; in experiment [2], less than 4.30; in experiment [3], 4.80; in experiment [4], 4.56; in experiment [5], less than 4.30.
Consider `COc1ccc2nc(NC(=O)c3cn(-c4ccccc4)nc3-c3ccccc3)sc2c1`, for which the pIC50 was less than 4.30 in experiment [1]; less than 4.30 in experiment [2]; 4.76 in experiment [3]; less than 4.30 in experiment [4]; 4.39 in experiment [5].
Regarding `COc1ccc(-c2nn(-c3ccccc3)cc2C(=O)Nc2nc3ccc(OC)cc3s2)cc1`, the pIC50 in experiment [1] is less than 4.30; in experiment [2] it was less than 4.30; in experiment [3], 4.87; in experiment [4], 4.72; in experiment [5], 5.23.
With `O=C(Nc1nc2ccc(Cl)cc2s1)c1cn(-c2ccccc2)nc1-c1ccc(Cl)cc1`, the pIC50 in experiment [1] is 5.34; in experiment [2], 4.80; in experiment [3], 5.49; in experiment [4], 5.36; in experiment [5], 5.23.
On the same counts, the results for `COc1ccc(-c2nn(-c3ccccc3)cc2C(=O)Nc2nc3ccc(F)cc3s2)cc1` are 5.25, 4.81, 5.31, 5.12 and 5.05.
On the same counts, the results for `O=C(Nc1nc2ccc(F)cc2s1)c1cn(-c2ccccc2)nc1-c1ccccc1` are 5.01, 4.75, 5.49, 4.99 and 5.25.
For `Cc1ccc2nc(NC(=O)c3cn(-c4ccccc4)nc3-c3ccc(F)cc3)sc2c1`, the pIC50 in experiment [1] was 4.64; in experiment [2], less than 4.30; in experiment [3] it was 4.69; in experiment [4], 4.61; in experiment [5], less than 4.30.
`COc1ccc(-c2nn(-c3ccccc3)cc2C(=O)Nc2nc3ccccc3s2)cc1`: the pIC50 in experiment [1] was 4.98; in experiment [2], 4.72; in experiment [3] it was 5.18; in experiment [4], 4.86; in experiment [5], 4.94.
Turning to `O=C(Nc1nc2ccc(F)cc2s1)c1cn(-c2ccccc2)nc1-c1ccc(Cl)cc1`, the negative logarithm of the IC50 (pIC50) in experiment [1] was 5.30; in experiment [2] it was less than 4.30; in experiment [3], 5.24; in experiment [4], 5.05; in experiment [5], 5.11.
With `O=C(Nc1nc2ccccc2s1)c1cn(-c2ccccc2)nc1-c1ccc(F)cc1`, the pIC50 in experiment [1] was 5.04; in experiment [2], 4.48; in experiment [3] it was 5.15; in experiment [4] it was 5.05; in experiment [5], 4.97.
`O=C(Nc1nc2ccc(Cl)cc2s1)c1cn(-c2ccccc2)nc1-c1ccccc1`: the pIC50 in experiment [1] is 5.11; in experiment [2], 4.67; in experiment [3] it was 5.43; in experiment [4], 5.12; in experiment [5], 5.30.
On the same counts, the results for `O=C(Nc1nc2ccc(F)cc2s1)c1cn(-c2ccccc2)nc1-c1ccc(F)cc1` are 5.38, 4.78, 5.28, 5.18 and 4.90.
